Data from US8729034B2, “Pharmaceutical composition having virucidal and spermicidal activity” (priority 2007, dated 2014).
Several values for one entry are separate records, joined by “and”; a condition that tells them apart may be missing. Equal values may be shown once.

Columns and labels:
human spermatozoa = assay: Sander & Cramer spermicidal assay (in vitro); format: cell-based
Protocol: The exudates/liquefied human semen samples were suspended in BWW medium (pre equilibrated at 37 degree C.). The spermatozoa with forward motility were separated from immotile or sluggishly motile cells by the swim-up technique and were allowed to disperse evenly within a CO2 incubator at 37 degree C. At least five aliquots from each sample was used to prepare the working spermatozoa suspension. The swim up procedure was as follows:
Pre equilibrated BWW medium (1.25 ml) was gently layered over cauda-exudates or liquefied human semen (1 ml) in a sterile 15 ml conical-based centrifuge tube. The tube was inclined at an angle of 45 degree and incubated for 1 hour at 37 degree C. in a CO2-incubator. It was then gently returned to the upright position and the uppermost 1 ml medium with a turbid appearance was removed. This aliquot of motile cells was pooled from each set, then diluted with same volumes of pre equilibrated BWW medium, centrifuged at 500 g for 5 minutes and finally resuspended in 1 ml pre equilibrated BWW medium to obtain a working suspension. The sperm cells were counted in a Makler chamber (Zygotec Systems, Springfield, M A, USA) and finally a working spermatozoa suspension having concentration of 25 to 30×10^6 cells/ml was prepared.
For in vitro assay of spermicidal effect, sperms collected from proven male rats and mice, and motile spermatozoa from liquefied human semen were used.
The assay was done following the Sander & Cramer assay method. Two hundred micro liter (200 microliters) of working spermatozoa suspension was added to 1 ml solution of test material in BWW medium and mixed on a light vortex for 10 seconds. A wet mount was immediately prepared on a clean microscopy glass slide and examined (at ×100) under a phase contrast microscope (Leitz, Biomed). The weakest concentration that immobilized all spermatozoa within 20 seconds of mixing was recorded as MEC. At least five fields were examined for each wet mount preparation. The observation was repeated with five individual spermatozoa suspension for each concentration of test compound solution. For negative control, saponin solutions were replaced by equal volume of BWW medium, while Nonoxynol 9 was used as positive control.

Female cycling rats = assay: Intra uterine application of Ac-B and IUI in rat, fertilization outcome; format: in vivo, Sprague-Dawley rats
Protocol: Female cycling rats weighing 180-200 g were obtained from the institutional Animal House. The duplex nature of the rat uterus with separate cervical canal helped us to organize both control and experimental sets in the same animal with exposure to identical physiological milieu.
On the day of pro-estrous, both horns of the uterus were exposed by mid-ventral incision of the abdomen under light anesthesia following intra peritoneal injection of Ketamin at a concentration of 100 mg/kg body weight, supported by inhalation of anesthetic-ether, during 17.00-17.30 hours of the day. IUI was performed by injecting 50 microliters of sperm suspensions with varied concentration (25-30, 40-50, and 50-55 million sperms/ml) through a 24 G needle fitted onto a tuberculin syringe in the cervical end of the uterine lumen of each horn. The muscle in the injection site was held tightly for a while to prevent leakage through the puncture. Prior to IUI, each rat received a injection of 1.75 mg Ac-B in 50 microliters BWW medium in the left horn and simple BWW medium in the right horn. The opened abdominal muscle and skin layers were properly sutured by suturing silk thread. The outer most skin layers were further fixed by metal clips. The wound was properly cleaned with antiseptic lotions. Each operated animal was housed individually in fresh cage for collection and counting of unfertilized oocytes, two celled embryos, and fragmented bodies. […] The abdomen was opened and each of the fallopian tubes was collected carefully. The content of each tube was flushed out by introducing BWW medium into each tube with the help of a 30 G hypodermic needle in a watch glass. The flushed out lavage was examined under an inverted phase contrast microscope (Leitz, Labovert, ×100) to score the number of recovered fertilized/unfertilized eggs from individual fallopian tube.

human sperm = assay: Electron microscopy of treated sperm (TEM/SEM); format: cell-based; settings: Ac-B-treated human sperm
Protocol: For electron microscopy, the suspending medium was replaced with 0.1M phosphate buffer (pH 7.0). A concentrated untreated (control) and Ac-B-treated (experimental) human sperm suspension were mixed with 2% glutaraldehyde in phosphate buffer for fixation at 4 degree C. for 4 hours. After three successive washings in buffer at room temperature, post-fixation was done by 1% osmium tetroxide. Thirty minutes after post-fixation, the spermatozoa were quickly washed with phosphate buffer and end block staining was done by saturated urenyl acetate solution. Dehydration of the fixed spermatozoa was done in graded (50%, 70%, 90% and 100%) ethyl alcohol. A portion of each set of dehydrated sperms were embedded in spur and blocks were prepared for ultra-thin sectioning. Ultra-thin sections were prepared in LKB Ultramicrotome using a diamond knife. Finally the thin sections were stained with urenyl acetate and freshly prepared lead citrate. The stained sections were thoroughly examined under TECHNI G2 BIOTWEEN transmission electron microscope (at ×25000). The rest of the dehydrated sperm sets were prepared for examination under tescan scanning electron microscope.

HIV = assay: Inactivation of HIV in vitro (summary statements); format: cell-based
Protocol: Human CD4+ T cell line CEM-GFP cells were infected with HIV-1 NL-4.3 virus pretreated without or with Ac-B at varying concentrations (1 hour at 37 degree C.) at a multiplicity of infection (MOI) of 0.01. The cells were then cultured in the presence or absence of Ac-B for up to 7 days post infection. Virus production was analyzed in the culture supernatant on day-7 post infection by p24 antigen capture ELISA
P4 (Hela-CD4-LTR-β Gal) cells were infected with 0.05 MOI of NL4.3 virus pretreated without or with Ac-B at varying concentrations (1 hour at 37 degree C.) followed by incubation for 48 hours in the presence or absence of Ac-B at a concentration of 0.5 to 2.5 microgram per ml. Virus production was analyzed by ELISA of p24 antigen in the culture supernatant. Viral transmission in the transfected cells was evaluated by X-gal staining, in which an antiretroviral therapeutic drug, Azidothymidine (AZT) was used as positive control.

[1] = 1.75 mg Ac-B intrauterine, sperm count 25-30 million/ml (N = 3)
[2] = 1.75 mg Ac-B intrauterine, sperm count 40-50 million/ml (N = 4)
[3] = 1.75 mg Ac-B intrauterine, sperm count 50-55 million/ml (N = 4)

Acaciaside-B [Ac-B]
MEC as per Sander and Cramer Test (human spermatozoa; Human spermatozoa (N = 5), weakest concentration immobilizing all spermatozoa within 20 seconds): 125 microgram per ml and 125 (±7) microgram per ml
EC50 for spermicidal activity in vitro (human spermatozoa; human sperm): 22 microgram per ml
MEC for spermicidal action (human spermatozoa; human sperm): 125 microgram
MEC for spermicidal activity (human spermatozoa; human sperm): 125 micro g/ml
MEC, spermicidal (human spermatozoa; human sperm): 125 µg/mL
Fertilized (number of eggs), treated horn (Female cycling rats; 1.75 mg Ac-B in 50 microliters BWW intrauterine before IUI, sperm count 25-30 million/ml (N = 3), flushing 38-40 hours after IUI): 0 (0%)
Fertilized (%), treated horn (Female cycling rats; [1]): 0 (0%)
Unfertilized (%), treated horn (Female cycling rats; [1]): 100%
Unfertilized (number of eggs), treated horn (Female cycling rats; [1]): 17
Fertilized (number of eggs), treated horn (Female cycling rats; [2]): 0 (%)
Unfertilized (%), treated horn (Female cycling rats; [2]): 100%
Unfertilized (number of eggs), treated horn (Female cycling rats; [2]): 19
Fertilized (%), treated horn (Female cycling rats; [3]): 18%
Fertilized (number of eggs), treated horn (Female cycling rats; [3]): 3
Unfertilized (%), treated horn (Female cycling rats; [3]): 82%
Unfertilized (number of eggs), treated horn (Female cycling rats; [3]): 13
Electron microscopic finding on plasma membrane (TEM) (human sperm): vesiculization/vacuolization of the plasma membrane leading to its disintegration
Dose level preventing HIV infection in vitro (HIV): greater than or equal to 1.0 microgram per ml
